Data as given in ChEMBL document CHEMBL4425142, “Inhibitors of diacylglycerol lipases in neurodegenerative and metabolic disorders” (Bioorg Med Chem Lett, 2016).

Legend:
[1] = target: T1, Diacylglycerol lipase-alpha (Homo sapiens, UniProt Q9Y4D2); test: Inhibition of human C-terminal HA-tagged DAGLalpha expressed in HEK293F cell membrane fractions using PNP butyrate as substrate by colorimetric surrogate substrate assay
T1 sequence (Q9Y4D2 whole entry): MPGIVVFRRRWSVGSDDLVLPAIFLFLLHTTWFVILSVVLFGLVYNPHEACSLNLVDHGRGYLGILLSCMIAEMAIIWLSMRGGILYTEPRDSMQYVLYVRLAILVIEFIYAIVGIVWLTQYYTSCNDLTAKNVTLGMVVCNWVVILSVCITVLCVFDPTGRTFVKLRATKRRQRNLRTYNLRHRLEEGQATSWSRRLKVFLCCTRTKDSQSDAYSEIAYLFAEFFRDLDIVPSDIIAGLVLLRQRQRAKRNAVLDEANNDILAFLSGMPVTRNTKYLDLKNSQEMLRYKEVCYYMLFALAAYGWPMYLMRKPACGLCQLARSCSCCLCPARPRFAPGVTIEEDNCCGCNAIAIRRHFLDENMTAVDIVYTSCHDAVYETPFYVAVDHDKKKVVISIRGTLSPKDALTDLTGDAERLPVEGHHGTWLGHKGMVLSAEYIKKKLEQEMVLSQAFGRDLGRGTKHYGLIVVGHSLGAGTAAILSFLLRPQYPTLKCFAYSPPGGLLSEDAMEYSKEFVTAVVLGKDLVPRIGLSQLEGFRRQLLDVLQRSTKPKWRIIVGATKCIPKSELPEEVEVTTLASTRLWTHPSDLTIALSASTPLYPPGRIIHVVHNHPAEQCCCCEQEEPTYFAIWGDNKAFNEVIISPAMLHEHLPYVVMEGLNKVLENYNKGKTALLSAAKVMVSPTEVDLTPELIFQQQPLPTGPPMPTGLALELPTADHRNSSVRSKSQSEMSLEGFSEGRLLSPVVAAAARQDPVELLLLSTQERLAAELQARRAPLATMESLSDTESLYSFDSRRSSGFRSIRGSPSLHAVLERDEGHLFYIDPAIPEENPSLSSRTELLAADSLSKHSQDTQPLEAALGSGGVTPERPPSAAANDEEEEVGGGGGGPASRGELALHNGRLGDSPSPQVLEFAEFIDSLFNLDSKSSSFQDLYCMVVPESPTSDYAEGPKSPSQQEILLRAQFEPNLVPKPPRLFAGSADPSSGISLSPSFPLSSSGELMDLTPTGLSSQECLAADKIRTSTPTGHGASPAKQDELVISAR

[2] = target: T1, Diacylglycerol lipase-alpha; test: Inhibition of human C-terminal HA-tagged DAGLalpha expressed in HEK293F cell membrane fractions using DiFMU-octanoate as substrate by fluorogenic surrogate substrate assay
[3] = target: T2, Diacylglycerol lipase-alpha (Mus musculus, UniProt Q6WQJ1); test: Inhibition of DAGLalpha in mouse brain proteome pre-incubated for 30 mins followed by ABP MB064 probe addition for 15 mins by ABPP assay; format: subcellular
T2 sequence (Q6WQJ1 whole entry): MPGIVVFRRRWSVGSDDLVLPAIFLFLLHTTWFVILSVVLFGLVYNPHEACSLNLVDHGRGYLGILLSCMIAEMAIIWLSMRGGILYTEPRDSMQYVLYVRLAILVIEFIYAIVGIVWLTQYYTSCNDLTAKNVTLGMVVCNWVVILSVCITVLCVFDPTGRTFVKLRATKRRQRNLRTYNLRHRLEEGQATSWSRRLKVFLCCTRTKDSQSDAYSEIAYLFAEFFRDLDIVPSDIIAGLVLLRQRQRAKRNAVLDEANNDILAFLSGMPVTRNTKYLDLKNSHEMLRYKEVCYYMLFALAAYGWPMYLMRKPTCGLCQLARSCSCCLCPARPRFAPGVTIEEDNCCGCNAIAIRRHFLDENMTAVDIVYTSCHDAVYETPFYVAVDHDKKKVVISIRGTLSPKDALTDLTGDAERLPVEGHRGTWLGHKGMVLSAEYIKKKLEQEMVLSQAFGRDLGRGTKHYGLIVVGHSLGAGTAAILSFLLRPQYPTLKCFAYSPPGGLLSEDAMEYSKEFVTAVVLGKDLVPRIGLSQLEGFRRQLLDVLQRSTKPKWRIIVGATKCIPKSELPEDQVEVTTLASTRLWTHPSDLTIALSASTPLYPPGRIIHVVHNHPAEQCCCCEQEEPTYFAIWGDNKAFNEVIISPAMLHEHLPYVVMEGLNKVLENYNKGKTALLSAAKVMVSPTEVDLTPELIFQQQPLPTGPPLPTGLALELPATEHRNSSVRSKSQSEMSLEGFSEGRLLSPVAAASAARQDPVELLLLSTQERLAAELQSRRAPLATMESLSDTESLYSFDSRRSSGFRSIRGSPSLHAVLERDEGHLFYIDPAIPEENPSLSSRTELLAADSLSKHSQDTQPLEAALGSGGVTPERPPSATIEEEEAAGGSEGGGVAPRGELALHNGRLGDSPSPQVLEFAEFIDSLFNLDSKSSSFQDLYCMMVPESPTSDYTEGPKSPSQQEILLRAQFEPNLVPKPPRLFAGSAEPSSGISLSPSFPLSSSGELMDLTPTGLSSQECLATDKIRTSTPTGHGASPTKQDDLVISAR

[4] = target: T3, Diacylglycerol lipase-beta (Mus musculus, UniProt Q91WC9); test: Inhibition mouse DAGLbeta expressed in HEK293T cell membrane fractions using DAG as substrate preincubated for 30 mins followed by ABP HT01 probe addition measured after 30 mins in presence of probe by gel-based ABPP competition assay
T3 sequence (Q91WC9 whole entry): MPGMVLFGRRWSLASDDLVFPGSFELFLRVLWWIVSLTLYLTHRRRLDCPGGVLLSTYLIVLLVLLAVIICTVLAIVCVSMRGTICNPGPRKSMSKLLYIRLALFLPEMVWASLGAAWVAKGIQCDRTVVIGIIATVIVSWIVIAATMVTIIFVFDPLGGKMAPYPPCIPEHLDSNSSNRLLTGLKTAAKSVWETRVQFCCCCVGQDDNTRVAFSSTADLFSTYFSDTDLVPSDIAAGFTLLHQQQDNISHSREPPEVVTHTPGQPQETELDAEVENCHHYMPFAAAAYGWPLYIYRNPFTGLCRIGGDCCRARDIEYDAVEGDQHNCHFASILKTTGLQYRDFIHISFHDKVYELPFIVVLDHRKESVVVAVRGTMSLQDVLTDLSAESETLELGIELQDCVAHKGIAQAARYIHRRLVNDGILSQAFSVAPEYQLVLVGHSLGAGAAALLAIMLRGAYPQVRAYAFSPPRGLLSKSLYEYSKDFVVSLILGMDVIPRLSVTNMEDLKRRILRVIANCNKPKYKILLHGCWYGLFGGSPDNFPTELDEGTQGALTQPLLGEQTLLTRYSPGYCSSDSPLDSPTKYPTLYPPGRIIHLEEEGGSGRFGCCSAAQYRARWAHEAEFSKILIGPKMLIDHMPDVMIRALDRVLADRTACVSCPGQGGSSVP

[5] = target: T1, Diacylglycerol lipase-alpha; test: Inhibition human DAGLalpha expressed in HEK293T cell membrane fractions using DAG as substrate preincubated for 30 mins followed by ABP HT01 probe addition measured after 30 mins in presence of probe by gel-based ABPP competition assay
[6] = target: T3, Diacylglycerol lipase-beta; test: Inhibition of V-tagged mouse DAGLbeta expressed in […] cell membrane fractions using SAG as substrate assessed as accumulation of 2-AG preincubated for 30 mins followed by substrate addition measured after 30 mins by LC-MS natural substrate assay
[7] = target: T1, Diacylglycerol lipase-alpha; test: Inhibition of human GST-tagged DAGLalpha expressed in HEK293F cell membranes using 1-stearoyl-2-arachidonoyl-sn-glycerol as substrate preincubated for 20 mins followed by substrate addition by enzyme coupled natural substrate assay
[8] = target: T1, Diacylglycerol lipase-alpha; test: Inhibition of human DAGLalpha expressed in HEK293T cell membrane fractions using PNP butyrate as substrate preincubated for 20 mins followed by substrate addition by colorimetric surrogate substrate assay
[9] = target: T4, Diacylglycerol lipase-beta (Homo sapiens, UniProt Q8NCG7); test: Inhibition of human GST-tagged DAGLbeta catalytic domain expressed in HEK293F cell membranes using EnzChek as substrate preincubated for 5 mins followed by substrate addition by fluorogenic surrogate substrate assay
T4 sequence (Q8NCG7 whole entry): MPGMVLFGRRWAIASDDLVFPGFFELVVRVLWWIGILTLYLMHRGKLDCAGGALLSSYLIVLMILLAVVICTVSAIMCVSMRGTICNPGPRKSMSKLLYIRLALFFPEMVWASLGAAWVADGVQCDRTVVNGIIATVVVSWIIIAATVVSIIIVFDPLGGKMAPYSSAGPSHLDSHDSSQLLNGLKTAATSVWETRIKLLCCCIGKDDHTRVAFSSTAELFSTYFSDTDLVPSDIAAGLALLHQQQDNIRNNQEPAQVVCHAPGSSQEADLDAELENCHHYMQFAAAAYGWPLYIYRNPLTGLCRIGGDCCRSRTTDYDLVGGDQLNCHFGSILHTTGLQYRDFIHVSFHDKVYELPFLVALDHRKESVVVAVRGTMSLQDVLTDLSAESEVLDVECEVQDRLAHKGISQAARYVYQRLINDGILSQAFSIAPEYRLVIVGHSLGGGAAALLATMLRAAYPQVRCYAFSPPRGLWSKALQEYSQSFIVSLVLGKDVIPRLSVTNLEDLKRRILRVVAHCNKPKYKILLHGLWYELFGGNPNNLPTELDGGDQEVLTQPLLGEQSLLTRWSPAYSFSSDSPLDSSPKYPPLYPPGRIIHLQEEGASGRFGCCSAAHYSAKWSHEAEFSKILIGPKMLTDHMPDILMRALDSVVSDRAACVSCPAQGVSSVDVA

[10] = target: Cannabinoid receptor 1 (Homo sapiens, UniProt P21554); test: Antagonist activity at CBR1 (unknown origin)
Sequence of Cannabinoid receptor 1 (P21554 whole entry): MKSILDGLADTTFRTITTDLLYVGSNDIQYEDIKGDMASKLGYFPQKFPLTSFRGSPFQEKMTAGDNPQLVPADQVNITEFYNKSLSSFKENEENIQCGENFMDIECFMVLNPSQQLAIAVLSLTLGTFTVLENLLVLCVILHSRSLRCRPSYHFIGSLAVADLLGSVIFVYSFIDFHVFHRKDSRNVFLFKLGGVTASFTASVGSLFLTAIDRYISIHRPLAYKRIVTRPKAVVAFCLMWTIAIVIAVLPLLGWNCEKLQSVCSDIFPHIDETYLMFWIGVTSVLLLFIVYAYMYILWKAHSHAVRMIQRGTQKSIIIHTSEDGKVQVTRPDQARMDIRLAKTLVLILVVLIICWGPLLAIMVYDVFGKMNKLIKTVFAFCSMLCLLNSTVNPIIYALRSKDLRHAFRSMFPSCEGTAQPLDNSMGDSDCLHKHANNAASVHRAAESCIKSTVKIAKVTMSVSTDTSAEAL

[11] = target: T3, Diacylglycerol lipase-beta; test: Inhibition of full length 3' FLAG-tagged mouse DAGLbeta expressed in African green monkey COS7 cells using sn-1-stearoyl-[14C]-arachidonoyl-glycerol as substrate preincubated for 15 mins followed by substrate addition measured after 30 mins by radiometric natural substrate assay; format: cell-based
[12] = target: T3, Diacylglycerol lipase-beta; test: Inhibition of mouse DAGLbeta expressed in HEK293T cell membranes using SAG as substrate preincubated for 20 mins followed by substrate addition by enzyme coupled natural substrate assay

IC50 [3] | IC50 [4] | IC50 [5] | SMILES | other results
25.1 nM |  |  | Cc1ccc(-c2cnc3nc(C(=O)CCCCCc4ccccc4)oc3c2)cc1 | IC50 [8]: 3.16 nM
 | 2000 nM |  | CCCCCCCCCCCC(C[C@@H]1OC(=O)[C@H]1CCCCCC)OC(=O)[C@H](CC(C)C)NC=O (stereo partly drawn) | IC50 [11]: 100 nM
 | 2.51 nM | 0.501 nM | CC(C)(C)OC(=O)N1CCN(C(=O)n2cc(-c3ccc(OC(F)(F)F)cc3)nn2)C(Cc2ccccc2)C1 (stereo not drawn) | IC50 [12]: 7.94 nM

Continued, molecule first:

SMILES | IC50 [3] | IC50 [4] | IC50 [5] | other results
O=C(NCCCCCCNC(=O)ON=C1CCCCC1)ON=C1CCCCC1 |  |  |  | IC50 [1]: 5010 nM; IC50 [2]: 25100 nM
O=C(CCCCCc1ccccc1)c1nc2ncccc2o1 | 501 nM |  |  | 
COc1ccccc1-c1ccc(-c2cn(C(=O)N3CCCCC3Cc3ccccc3)nn2)cc1 (stereo not drawn) |  | 63.1 nM | 126 nM | IC50 [6]: 79.4 nM
O=C(N1CCCCC1Cc1ccccc1)n1cc(-c2ccc(-c3ccccc3)cc2)nn1 (stereo not drawn) |  | 39.8 nM | 2510 nM | IC50 [7]: 25.1 nM; IC50 [6]: 79.4 nM
CC1(C)CCc2cc(S(=O)(=O)N(CC(=O)O)Cc3ccc(Oc4ccccc4)cc3)ccc2O1 | 126 nM |  |  | IC50 [7]: 1000 nM
C#CCO[C@@H]1CC[C@H](Cc2ccccc2)N(C(=O)n2ncc(C(O)(c3ccc(F)cc3)c3ccc(F)cc3)n2)C1 |  | 5.01 nM | 1.26 nM | 
CCCCCCCCCCCC(C[C@@H]1OC(=O)[C@H]1CCCCCC)OC(=O)[C@@H](NC=O)C(C)CC (stereo partly drawn) |  |  |  | IC50 [9]: 6.31 nM; Ki [10]: 6000 nM
